US8399495B2, “Talarazole metabolites” (Stiefel Laboratories, Inc., priority 2006, dated 2013)

Tests used:
[1] = test system: vaginal keratinization induced by estrogenic treatment; assay: Inhibition of vaginal keratinization induced by estrogenic treatment in ovariectomized rats; format: in vivo, rat; conditions: for ED50-value for complete suppression (keratinization score=0): ovariectomized rats with estrogenic treatment, M4 oral during 3 days
Source text: Effects on Epithelial Differentiation in Rat Vagina: Inhibition of Vaginal Keratinization Induced by Estrogenic Treatment in Ovariectomized Rats by Oral Administration of Talarozole Metabolite M4
This animal model is based on the observation that retinoic acid (RA) suppresses the keratinization process in the stratified squamous epithelium of the vagina induced by estrogenic treatment in ovariectomized rats (Sietsema & DeLuca, 1982; Geiger & Weiser, 1989).

[2] = Metabolite radioprofiling of plasma, urine and feces, rat; format: in vivo; conditions: rat (5 mg/kg) oral 14C-talarozole; for Urine % Dose as the component: urine 0-48 h
Description: (§1) Male and female CD-1 mice (19-29 g, n=3/sex/timepoint for blood sampling, n=3/sex for mass balance), Sprague Dawley rats (0.205-0.237 kg, n=3/sex/timepoint for blood sampling, n=3/sex for mass balance) and beagle dogs (7-12 kg, n=3) were given a single oral dose of ^14C-labeled talarozole in 20% hydroxyl propyl B-cyclodextrin at 5 mg/kg. Healthy human male volunteers (76.6-107.9 kg, n=5) were dosed with a single oral dose of 4 mg ^14C-labeled rambazole in ethanol. Blood samples were collected at selected timepoints after dosing and plasma was prepared. Urine and feces were collected for 2, 7 and 8 days. For the human study, up to 288 hours post-dose and semen samples were obtained 2 and 4 hours post-dose. Radioactivity in various matrices were measured by liquid scintillation counting (LSC). Select plasma, urine and fecal samples were subjected to metabolite radioprofiling and characterization, and in the human study, semen samples. Metabolite radioprofiling was accomplished using HPLC with fraction collection followed by solid scintillation counting (Packard TopCount—see representative HPLC run data below). Radioactivity peaks were integrated and the percent distribution of individual metabolites in each sample was determined. Metabolite characterization and identification were accomplished by LC/MS (Finnigan MAT LCQ in positive or negative ESI mode) in conjunction with an appropriate radioactive monitor (RAM). For all species, plasma, urine and fecal samples were pooled across animals and analyzed. Plasma was analyzed at several time-points out to 24 hours. Urine was analyzed over one time-interval (0-24 hours for mouse, 0-48 hours for rat, 0-72 hours for dog, and for in the human study, 0-12, 12-24, 24-48, 0-48 hours. Feces was analyzed over 2-3 time intervals (0-24 and 24-48 hours for mouse and rat; 0-24, 24-48, and 48-72 hours for male dogs; and 24-48, 48-72, and 72-96 hours for female dogs). In the human study, feces were analyzed for 0-48, 48-96, 96-144, 144-192, 192-288, 0-144, 144-288 and 0-288 hours. PK parameters for ^14C-labeled talarozole radioactivity was determined from the mean (mouse and rat) or individual (dog and human) plasma concentration versus time data. PK parameter values were determined by non-compartmental methods using WinNonlin™. • HPLC data for separations described in Example 1: • LC system: Waters 2695 Separations Module • Analytic column: C18 column, 4.6×150 mm, 3 μm • Flow rate: 1.0 mL/min • Mobile phase A: 2% HCOOH in H2O (pH 3.2) • Mobile phase B: CH3CN • Gradient: […]

[3] = Metabolite radioprofiling of plasma, urine and feces, mouse; format: in vivo; conditions: mouse (5 mg/kg) oral 14C-talarozole; for Urine % Dose as the component: urine 0-24 h
Description: as §1

IP-10 = assay: Suppression of IP-10 production by IFNγ-activated human epidermal keratinocytes; format: cell-based
Source text: Talarozole Metabolites for Suppression of IP-10 Production by IFNγ-Activated Human Epidermal Keratinocytes
IP-10, a member of the CXC subfamily of chemokines, attracts T-lymphocytes and natural killer cells. […] In particular, epidermal keratinocytes of psoriatic lesions express elevated levels of IP-10. Suppression of IP-10 expression by activated keratinocytes may represent a novel target for therapeutic intervention of inflammatory skin disorders.

[4] = Metabolite radioprofiling of plasma, urine, feces and semen, human; conditions: in vivo
Description: as §1

[5] = Metabolite radioprofiling of plasma, urine and feces, dog; format: in vivo; conditions: dog (5 mg/kg) oral 14C-talarozole; for Urine % Dose as the component: urine 0-72 h
Description: as §1

| Feces % Dose as the component ([2]; female) [% Dose] | Plasma 0-24 h AUC (% Sample) ([2]; female) [%] | Plasma 0-24 h AUC of the radioactive component ([2]; female) [ng·h/g] | Urine % Dose as the component ([2]; female) [% Dose] | Feces % Dose as the component ([2]; male) [% Dose] | Plasma 0-24 h AUC (% Sample) ([2]; male) [%] | Plasma 0-24 h AUC of the radioactive component ([2]; male) [ng·h/g] | Urine % Dose as the component ([2]; male) [% Dose] | Plasma 0-24 h AUC (% Sample) ([3]; female) [%] | Plasma 0-24 h AUC of the radioactive component ([3]; female) [ng·h/g] | Plasma 0-24 h AUC (% Sample) ([3]; male) [%] | Plasma 0-24 h AUC of the radioactive component ([3]; male) [ng·h/g] | Feces % Dose as the component ([5]; female) [% Dose] | Urine % Dose as the component ([5]; female) [% Dose] | Feces % Dose as the component ([5]; male) [% Dose] | Urine % Dose as the component ([5]; male) [% Dose] | SMILES | ED50-value for complete suppression (keratinization score=0) [1] [mg/kg/day] | IP-10 expression (IP-10) | also measured |
| --- | --- | --- | --- | --- | --- | --- | --- | --- | --- | --- | --- | --- | --- | --- | --- | --- | --- | --- | --- |
| 7.76 | 3.68 | 331.07 | 0.29 | 4.95 | 7.01 | 493.84 | 0.07 | 7.44 | 492.2 | 4.43 | 402.45 | 17.01 | 0.01 | 19.88 | 0.04 | CCC(CC)C(c1ccc(Nc2nc3ccc(O)cc3s2)cc1)n1cncn1 (stereo not shown) [Metabolite M4] | 1.2 | down regulate dose-dependently | inhibition of vaginal keratinization ([1]; oral administration during 3 days, ovariectomized rats): inhibited vaginal keratinization induced by estrogenic treatment in ovariectomized rats in a dose-dependent manner; Feces % Dose as the component ([3]; female): 15.16 % Dose; Urine % Dose as the component ([3]; female): 0.01 % Dose; Feces % Dose as the component ([3]; male): 10.56 % Dose; Urine % Dose as the component ([3]; male): 0.02 % Dose; Plasma 0-24 h AUC of the radioactive component ([4]; human, po, 0.067 mg/kg): 58.74 ng·h/g; Semen (radioactive component in semen samples) [4]: minor radioactive components; Plasma 0-24 h AUC (% Sample), % of total plasma radioactivity ([4]; male, human, po, 0.067 mg/kg): 27.8%; Plasma 0-24 h AUC (% Sample) ([5]; female): 34.33%; Plasma 0-24 h AUC of the radioactive component ([5]; female): 6257.6 ng·h/g; Plasma 0-24 h AUC (% Sample) ([5]; male): 18.37%; Plasma 0-24 h AUC of the radioactive component ([5]; male): 3132.4 ng·h/g |
|  | 12.06 | 1084.8 |  |  | 4.43 | 312.30 |  | 18.27 | 1208.2 | 21.31 | 1937.3 | 3.09 | 0.45 | 4.31 | 1.35 | CCC(CC)C(c1ccc(Nc2nc3ccc(OC4OC(C(=O)O)C(O)C(O)C4O)cc3s2)cc1)n1cncn1 (stereo not shown) [Metabolite M9] |  |  |  |
| 1.33 | 2.43 | 218.47 | 0.31 | 1.42 | 2.94 | 207.48 | 0.16 |  |  |  |  |  |  |  |  | CCC(CC)C(c1ccc(Nc2nc3ccc(OS(=O)(=O)O)cc3s2)cc1)n1cncn1 (stereo not shown) [Metabolite M16] |  |  |  |
|  |  |  |  |  |  |  |  |  |  |  |  |  |  |  |  | CC1=C(/C=C/C(C)=C/C=C/C(C)=C/C(=O)O)C(C)(C)CCC1 [RA, retinoic acid] | 5.1 |  |  |
|  |  |  |  |  |  |  |  |  |  |  |  |  |  |  |  | CCC(CC)[C@@H](c1ccc(Nc2nc3ccccc3s2)cc1)n1cncn1 [its enanantiomer] |  | down regulate dose-dependently |  |
